These are literature values, as cited in patent US20250143325A1, “PLANT-BASED INSECT REPELLENT AND USES THEREOF” (PIC Corporation, priority 2023, published 2025).

The test system of series [1] is storage food mite, Tyrophagus putrescentiae. The following applies: impregnated fabric disc bioassay against Tyrophagus putrescentiae.
The subject of series [2] is Periplaneta americana (the American Cockroach) and Blaberus discoidalis (discoids).

Regarding `O=C(OCc1ccccc1)c1ccccc1` [benzyl benzoate], in series [1], the “50% lethal dose value” is 1.27 g/mL.
`CC(C)=CCC/C(C)=C/CO` [geraniol]: the “concentration abolishing spontaneous foregut contractions (together with response to electrical stimulation)” value in series [2] (foregut) was 2 mM. In series [2] (lower doses, impulses recorded extracellularly), the “threshold for increased spontaneous firing (abdominal nerve cord)” value was 250 µM. Moreover, the “50% lethal dose value” in series [1] is 1.95 g/mL.
